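Method: 48-hour compound exposure of cells in 96-well plates, five concentrations, linear interpolation of endpoints. TGI: total growth inhibition.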
Columns and labels:
Assay in all cases: NCI-60 cell line screen, 48 h
ACHN renal = test system: ACHN renal
RXF-631 renal = test system: RXF-631 renal
SF-295 CNS = test system: SF-295 CNS
UO-31 renal = test system: UO-31 renal
KM12 colon = test system: KM12 colon
HOP-18 NSCLC = test system: HOP-18 NSCLC
786-0 renal = test system: 786-0 renal
COLO 205 colon = test system: COLO 205 colon
KM20L2 colon = test system: KM20L2 colon
SR leukemia = test system: SR leukemia
HOP-92 NSCLC = test system: HOP-92 NSCLC
SN12C renal = test system: SN12C renal
HCT-15 colon = test system: HCT-15 colon
HCT-116 colon = test system: HCT-116 colon
DLD-1 colon = test system: DLD-1 colon
OVCAR-8 ovarian = test system: OVCAR-8 ovarian
SF-268 CNS = test system: SF-268 CNS
K-562 leukemia = test system: K-562 leukemia
UACC-62 melanoma = test system: UACC-62 melanoma
SK-MEL-2 melanoma = test system: SK-MEL-2 melanoma
HOP-62 NSCLC = test system: HOP-62 NSCLC
TK-10 renal = test system: TK-10 renal
OVCAR-3 ovarian = test system: OVCAR-3 ovarian
LXFL 529 NSCLC = test system: LXFL 529 NSCLC
SK-MEL-5 melanoma = test system: SK-MEL-5 melanoma
RXF 393 renal = test system: RXF 393 renal
RPMI-8226 leukemia = test system: RPMI-8226 leukemia
SK-OV-3 ovarian = test system: SK-OV-3 ovarian
M14 melanoma = test system: M14 melanoma
MOLT-4 leukemia = test system: MOLT-4 leukemia
UACC-257 melanoma = test system: UACC-257 melanoma
EKVX NSCLC = test system: EKVX NSCLC
NCI-H23 lung = test system: NCI-H23 lung
SF-539 CNS = test system: SF-539 CNS
CCRF-CEM leukemia = test system: CCRF-CEM leukemia
IGROV1 ovarian = test system: IGROV1 ovarian
NCI-H226 lung = test system: NCI-H226 lung
A549 NSCLC = test system: A549 NSCLC
XF 498 CNS = test system: XF 498 CNS
NCI-H460 lung = test system: NCI-H460 lung
MALME-3M melanoma = test system: MALME-3M melanoma
CAKI-1 renal = test system: CAKI-1 renal
SNB-19 CNS = test system: SNB-19 CNS
OVCAR-4 ovarian = test system: OVCAR-4 ovarian
SNB-75 CNS = test system: SNB-75 CNS
SK-MEL-28 melanoma = test system: SK-MEL-28 melanoma
SW-620 colon = test system: SW-620 colon
NCI-H522 lung = test system: NCI-H522 lung
HT29 colon = test system: HT29 colon
U251 CNS = test system: U251 CNS
M19-MEL melanoma = test system: M19-MEL melanoma
A498 renal = test system: A498 renal
OVCAR-5 ovarian = test system: OVCAR-5 ovarian
HCC-2998 colon = test system: HCC-2998 colon
HL-60(TB) leukemia = test system: HL-60(TB) leukemia
DMS 114 small cell lung = test system: DMS 114 small cell lung
DMS 273 small cell lung = test system: DMS 273 small cell lung
LOX IMVI melanoma = test system: LOX IMVI melanoma
SNB-78 CNS = test system: SNB-78 CNS

Compound: COC[C@H](C)N=CN1CCc2ccccc2C1(Cc1ccccc1)Cc1ccccc1
- TGI (ACHN renal): 59.8 µM
- TGI (RXF-631 renal): 34.9 µM
- TGI (SF-295 CNS): 28.3 µM
- TGI (UO-31 renal): 33 µM
- TGI (KM12 colon): 27.3 µM
- TGI (HOP-18 NSCLC): 24 µM
- TGI (786-0 renal): 30.3 µM
- TGI (COLO 205 colon): 34.6 µM
- TGI (KM20L2 colon): 24.7 µM
- TGI (SR leukemia): 42 µM
- TGI (HOP-92 NSCLC): 29.8 µM
- TGI (SN12C renal): 23.8 µM
- TGI (HCT-15 colon): 39.1 µM
- TGI (HCT-116 colon): 29.7 µM
- TGI (DLD-1 colon): 29.8 µM
- TGI (OVCAR-8 ovarian): 28.8 µM
- TGI (SF-268 CNS): 45.9 µM
- TGI (K-562 leukemia): 29.3 µM
- TGI (UACC-62 melanoma): > 100 µM
- TGI (SK-MEL-2 melanoma): 23.6 µM
- TGI (HOP-62 NSCLC): 95.4 µM
- TGI (TK-10 renal): 38.8 µM
- TGI (OVCAR-3 ovarian): 43.8 µM
- TGI (LXFL 529 NSCLC): 25.3 µM
- TGI (SK-MEL-5 melanoma): > 100 µM
- TGI (RXF 393 renal): 32.7 µM
- TGI (RPMI-8226 leukemia): 38.9 µM
- TGI (SK-OV-3 ovarian): 30.6 µM
- TGI (M14 melanoma): 22.7 µM
- TGI (MOLT-4 leukemia): 37.9 µM
- TGI (UACC-257 melanoma): 28.3 µM
- TGI (EKVX NSCLC): 92.6 µM
- TGI (NCI-H23 lung): 39.8 µM
- TGI (SF-539 CNS): 33.6 µM
- TGI (CCRF-CEM leukemia): 56.7 µM
- TGI (IGROV1 ovarian): > 100 µM
- TGI (NCI-H226 lung): 37 µM
- TGI (A549 NSCLC): > 100 µM
- TGI (XF 498 CNS): 24.8 µM
- TGI (NCI-H460 lung): 25.9 µM
- TGI (MALME-3M melanoma): 24.7 µM
- TGI (CAKI-1 renal): 44.3 µM
- TGI (SNB-19 CNS): 32.5 µM
- TGI (OVCAR-4 ovarian): 35.6 µM
- TGI (SNB-75 CNS): 43 µM
- TGI (SK-MEL-28 melanoma): 23.6 µM
- TGI (SW-620 colon): 63.1 µM
- TGI (NCI-H522 lung): 26.7 µM
- TGI (HT29 colon): 20.1 µM
- TGI (U251 CNS): 26.9 µM

Compound: CCN(CC)CCNc1ccc2nc(C)n3c4ccc(O)cc4c(=O)c1c23
- TGI (ACHN renal): 3.78 µM
- TGI (M19-MEL melanoma): 16.8 µM
- TGI (RXF-631 renal): 7.51 µM
- TGI (SF-295 CNS): 9.81 µM
- TGI (UO-31 renal): 12.1 µM
- TGI (KM12 colon): 17.4 µM
- TGI (786-0 renal): 10.4 µM
- TGI (SR leukemia): 1.32 µM
- TGI (A498 renal): 13.3 µM
- TGI (SN12C renal): 12.4 µM
- TGI (OVCAR-5 ovarian): 8.1 µM
- TGI (HCT-15 colon): 5.83 µM
- TGI (HCT-116 colon): 10.3 µM
- TGI (DLD-1 colon): 10.5 µM
- TGI (OVCAR-8 ovarian): 3.23 µM
- TGI (HCC-2998 colon): 1.99 µM
- TGI (SF-268 CNS): 12 µM
- TGI (K-562 leukemia): 13.4 µM
- TGI (HL-60(TB) leukemia): 2.78 µM
- TGI (SK-MEL-2 melanoma): 20.3 µM
- TGI (HOP-62 NSCLC): 18.8 µM
- TGI (DMS 114 small cell lung): 10.4 µM
- TGI (OVCAR-3 ovarian): 17.1 µM
- TGI (LXFL 529 NSCLC): 16.5 µM
- TGI (SK-MEL-5 melanoma): 15.6 µM
- TGI (RPMI-8226 leukemia): 6.18 µM
- TGI (DMS 273 small cell lung): 3.15 µM
- TGI (SK-OV-3 ovarian): 12.6 µM
- TGI (LOX IMVI melanoma): 2.04 µM
- TGI (M14 melanoma): 16.2 µM
- TGI (MOLT-4 leukemia): 0.293 µM
- TGI (UACC-257 melanoma): 21.2 µM
- TGI (SF-539 CNS): 16.2 µM
- TGI (IGROV1 ovarian): 15.5 µM
- TGI (NCI-H226 lung): 2.13 µM
- TGI (A549 NSCLC): 1.25 µM
- TGI (NCI-H460 lung): 1.83 µM
- TGI (MALME-3M melanoma): 16.4 µM
- TGI (CAKI-1 renal): 3.6 µM
- TGI (SNB-19 CNS): 3.26 µM
- TGI (OVCAR-4 ovarian): 3.87 µM
- TGI (SNB-75 CNS): 14.7 µM
- TGI (SK-MEL-28 melanoma): 11.3 µM
- TGI (SW-620 colon): 1.98 µM
- TGI (NCI-H522 lung): 2.24 µM
- TGI (HT29 colon): 1.57 µM
- TGI (U251 CNS): 15.8 µM

Compound: CCN=C(C#N)NCC
- TGI (ACHN renal): > 100 µM
- TGI (M19-MEL melanoma): > 100 µM
- TGI (SF-295 CNS): > 100 µM
- TGI (UO-31 renal): > 100 µM
- TGI (KM12 colon): > 100 µM
- TGI (HOP-18 NSCLC): > 100 µM
- TGI (786-0 renal): > 100 µM
- TGI (COLO 205 colon): > 100 µM
- TGI (KM20L2 colon): > 100 µM
- TGI (SR leukemia): > 100 µM
- TGI (A498 renal): > 100 µM
- TGI (HOP-92 NSCLC): > 100 µM
- TGI (SN12C renal): > 100 µM
- TGI (OVCAR-5 ovarian): > 100 µM
- TGI (HCT-15 colon): > 100 µM
- TGI (HCT-116 colon): > 100 µM
- TGI (DLD-1 colon): > 100 µM
- TGI (OVCAR-8 ovarian): > 100 µM
- TGI (HCC-2998 colon): > 100 µM
- TGI (SF-268 CNS): > 100 µM
- TGI (K-562 leukemia): > 100 µM
- TGI (UACC-62 melanoma): > 100 µM
- TGI (HL-60(TB) leukemia): > 100 µM
- TGI (SK-MEL-2 melanoma): > 100 µM
- TGI (HOP-62 NSCLC): > 100 µM
- TGI (DMS 114 small cell lung): 92 µM
- TGI (TK-10 renal): > 100 µM
- TGI (OVCAR-3 ovarian): > 100 µM
- TGI (LXFL 529 NSCLC): > 100 µM
- TGI (SK-MEL-5 melanoma): > 100 µM
- TGI (RPMI-8226 leukemia): > 100 µM
- TGI (DMS 273 small cell lung): > 100 µM
- TGI (SK-OV-3 ovarian): > 100 µM
- TGI (LOX IMVI melanoma): > 100 µM
- TGI (M14 melanoma): > 100 µM
- TGI (MOLT-4 leukemia): > 100 µM
- TGI (UACC-257 melanoma): > 100 µM
- TGI (EKVX NSCLC): > 100 µM
- TGI (NCI-H23 lung): > 100 µM
- TGI (SF-539 CNS): > 100 µM
- TGI (CCRF-CEM leukemia): > 100 µM
- TGI (IGROV1 ovarian): > 100 µM
- TGI (NCI-H226 lung): > 100 µM
- TGI (A549 NSCLC): > 100 µM
- TGI (XF 498 CNS): > 100 µM
- TGI (NCI-H460 lung): > 100 µM
- TGI (MALME-3M melanoma): > 100 µM
- TGI (CAKI-1 renal): > 100 µM
- TGI (SNB-19 CNS): > 100 µM
- TGI (OVCAR-4 ovarian): > 100 µM
- TGI (SNB-75 CNS): > 100 µM
- TGI (SK-MEL-28 melanoma): > 100 µM
- TGI (SW-620 colon): 37.5 µM
- TGI (NCI-H522 lung): > 100 µM
- TGI (HT29 colon): > 100 µM
- TGI (SNB-78 CNS): > 100 µM
- TGI (U251 CNS): > 100 µM

Reference: PubChem BioAssay (NCI)
